We go through 13 compounds from PubChem BioAssay (NCI).

“And” between values parts separate entries of the source, which are not always exact repeats. Identical values can stand only once.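 All cell lines were grown in 96-well plates and treated with compound for 48 hours. TGI marks complete inhibition of growth.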

Test systems include A498 renal; CCRF-CEM leukemia; HL-60(TB) leukemia; MDA-MB-231 breast; MDA-MB-435; OVCAR-3 ovarian; OVCAR-4 ovarian; OVCAR-8 ovarian; SNB-19 CNS; UACC-62 melanoma.
Common to all, as to test: NCI-60 cell line screen, 48 h

Consider `Cc1nc(C)c(C(=O)NNC(=O)c2ccccc2)cc1C(=O)NNC(=O)c1ccccc1`, for which the TGI in the experiment with A498 renal, in the experiment with CCRF-CEM leukemia, in the experiment with HL-60(TB) leukemia, in the experiment on MDA-MB-231 breast, in the experiment with MDA-MB-435 and in the experiment on OVCAR-3 ovarian was > 100 µM in each case. Moreover, the TGI with OVCAR-4 ovarian, with OVCAR-8 ovarian, with SNB-19 CNS and in the experiment on UACC-62 melanoma was > 100 µM each time.

With `Cc1cc(S(=O)(=O)Nc2n[nH]c(N)n2)c(S)cc1Cl`, the TGI with A498 renal, with CCRF-CEM leukemia, with HL-60(TB) leukemia, in the experiment with MDA-MB-231 breast, in the experiment with MDA-MB-435 and in the experiment on OVCAR-3 ovarian was > 10 µM throughout. Besides, the TGI in the experiment on OVCAR-4 ovarian, in the experiment with OVCAR-8 ovarian, in the experiment on SNB-19 CNS and with UACC-62 melanoma was > 10 µM each time.

`CN1CCN(C2CC(=O)c3c(Cl)sc(Cl)c32)CC1` (stereo not given): the TGI in the experiment on A498 renal was > 75 µM; with CCRF-CEM leukemia it was 14.6 µM; in the experiment with HL-60(TB) leukemia it was 46 µM; in the experiment with MDA-MB-231 breast, 48 µM; in the experiment on MDA-MB-435, 16.5 µM; in the experiment with OVCAR-3 ovarian, 38.7 µM. The TGI with OVCAR-4 ovarian is > 42.9 µM; with OVCAR-8 ovarian it was > 21.3 µM; with SNB-19 CNS, > 100 µM; in the experiment on UACC-62 melanoma, 34.1 µM.

Consider `CCOC(=O)/C=C/C(Br)=C(Br)/C=C/C(=O)OCC`, for which the TGI in the experiment with A498 renal turned out to be 74.3 µM; with CCRF-CEM leukemia, 2.84 µM; with HL-60(TB) leukemia, 26.1 µM; in the experiment on MDA-MB-231 breast it was 31.1 µM; in the experiment with MDA-MB-435 it was 18.1 µM; in the experiment on OVCAR-3 ovarian, 24.9 µM. Also, the TGI in the experiment on OVCAR-4 ovarian was 34.8 µM; in the experiment on OVCAR-8 ovarian, 21.3 µM; with SNB-19 CNS, 33.6 µM; with UACC-62 melanoma, 30.9 µM.

Regarding `C/C(=N/NC(=O)c1ccccc1Nc1ccccc1C(=O)N/N=C(\C)c1ccc(C)cc1)c1ccc(C)cc1`, the TGI with A498 renal, with CCRF-CEM leukemia, in the experiment with HL-60(TB) leukemia, in the experiment with MDA-MB-231 breast, in the experiment on MDA-MB-435 and in the experiment with OVCAR-3 ovarian was > 100 µM in each case. In addition, the TGI in the experiment on OVCAR-4 ovarian, in the experiment with OVCAR-8 ovarian, in the experiment on SNB-19 CNS and with UACC-62 melanoma was > 100 µM each time.

Turning to `CC(=O)OCC12C(OC(C)=O)C[C@@H](C)C3(CC(c4ccoc4)OC3=O)C1CCC(OC(C)=O)C21CO1` (stereo not given in full), the TGI with A498 renal, in the experiment on CCRF-CEM leukemia, with HL-60(TB) leukemia, with MDA-MB-231 breast, in the experiment with MDA-MB-435 and in the experiment with OVCAR-3 ovarian was > 100 µM throughout. For the same compound, the TGI in the experiment with OVCAR-4 ovarian, in the experiment on OVCAR-8 ovarian, with SNB-19 CNS and in the experiment on UACC-62 melanoma was > 100 µM in each case.

Turning to `CC(=O)c1c2c(cc3c1CCC3)CCC2`, the TGI in the experiment on A498 renal, in the experiment on CCRF-CEM leukemia, in the experiment with HL-60(TB) leukemia, in the experiment with MDA-MB-231 breast, in the experiment with MDA-MB-435 and in the experiment on OVCAR-3 ovarian was > 100 µM throughout. The TGI with OVCAR-4 ovarian, in the experiment with OVCAR-8 ovarian, in the experiment on SNB-19 CNS and in the experiment with UACC-62 melanoma was > 100 µM in each case.

Consider `C[C@@H]1CC(=O)[C@@]2(C)[C@](O)(CCC3O[C@]32C)[C@@]12CC(c1ccoc1)OC2=O` (stereo not given in full), for which the TGI is > 100 µM in the experiment on A498 renal; 59.8 µM in the experiment with CCRF-CEM leukemia; 62.8 µM in the experiment with HL-60(TB) leukemia; > 100 µM with MDA-MB-231 breast; > 100 µM with MDA-MB-435; > 100 µM in the experiment on OVCAR-3 ovarian. Besides, the TGI with OVCAR-4 ovarian, with OVCAR-8 ovarian, in the experiment on SNB-19 CNS and in the experiment with UACC-62 melanoma was > 100 µM each time.

As for `CN1C(=O)[C@](C)(Cc2ccc(F)cc2)N(C(=O)OC(C)(C)C)[C@@H]1C(C)(C)C`, the TGI in the experiment with A498 renal is 70 µM; with CCRF-CEM leukemia it was > 100 µM; with HL-60(TB) leukemia, 26.2 µM; in the experiment on MDA-MB-231 breast, > 100 µM; with MDA-MB-435 it was > 100 µM; in the experiment with OVCAR-3 ovarian, 84 µM. For the same compound, the TGI with OVCAR-4 ovarian is > 100 µM; in the experiment on OVCAR-8 ovarian, 91.7 µM; in the experiment on SNB-19 CNS, > 100 µM; in the experiment on UACC-62 melanoma, > 100 µM.

With `O=C1CCc2c(sc3ncnc(Nc4cccc(Br)c4)c23)C1`, the TGI in the experiment with A498 renal came to 31.4 µM; with CCRF-CEM leukemia it was 4.38 µM; in the experiment with HL-60(TB) leukemia, 7.56 µM; with MDA-MB-231 breast, 11.5 µM; in the experiment with MDA-MB-435 it was 3.82 µM; with OVCAR-3 ovarian, 8.31 µM. In addition, the TGI is 8.63 µM in the experiment with OVCAR-4 ovarian, 21.3 µM in the experiment with OVCAR-8 ovarian, 19.2 µM with SNB-19 CNS and 11.1 µM in the experiment on UACC-62 melanoma.

Take `CCOC(=O)CCC1(C(=O)O[C@@H]2C[C@H](C)CC[C@H]2C(C)C)CCCCC1=O` (stereo not given in full): the TGI was > 100 µM in the experiment on A498 renal; > 100 µM with CCRF-CEM leukemia; 57.6 µM with HL-60(TB) leukemia; > 100 µM with MDA-MB-231 breast; > 100 µM in the experiment with MDA-MB-435; > 100 µM with OVCAR-3 ovarian. Also, the TGI with OVCAR-4 ovarian, in the experiment on OVCAR-8 ovarian, with SNB-19 CNS and in the experiment on UACC-62 melanoma was > 100 µM each time.

Turning to `CC(=O)OC1COC(n2c(N)c(C#N)c(-c3ccccc3)c(C#N)c2=S)C(OC(C)=O)C1OC(C)=O` (stereo not given), the TGI is 66 µM and 79.3 µM in the experiment with A498 renal; 67.7 µM and > 100 µM with CCRF-CEM leukemia; 44.8 µM with HL-60(TB) leukemia; > 100 µM with MDA-MB-231 breast; 93.6 µM and 61.2 µM in the experiment on MDA-MB-435; > 100 µM and 97.2 µM in the experiment on OVCAR-3 ovarian. In addition, the TGI with OVCAR-4 ovarian is > 100 µM; in the experiment on OVCAR-8 ovarian, > 100 µM and 97.3 µM; in the experiment with SNB-19 CNS, > 100 µM; in the experiment on UACC-62 melanoma, > 100 µM.

Consider `CC1C/C(=C\c2ccc(O)c(O)c2)C(=O)/C(=C/c2ccc(O)c(O)c2)C1` (stereo not given), for which the TGI in the experiment with A498 renal was found to be 12.8 µM; with CCRF-CEM leukemia, 7.2 µM; in the experiment with HL-60(TB) leukemia it was 8.42 µM; with MDA-MB-231 breast, 43.4 µM; with MDA-MB-435 it was 9.74 µM; in the experiment on OVCAR-3 ovarian, 18.1 µM. The TGI in the experiment with OVCAR-4 ovarian is 34.1 µM; with OVCAR-8 ovarian, 48.7 µM; in the experiment with SNB-19 CNS, 22.5 µM; with UACC-62 melanoma, 13.6 µM.
